pIC50: −log10 of the molar value. Read-outs that look alike come from different tables or passages of the source.
What was measured:
cGAS = cGAS (Homo sapiens, UniProt Q8N884); experiment: cell-based
[1] = system: TREX1 KO THP-1 ISG Luc cells; experiment: cells; type: cell-based; details: Homo sapiens, 48 h, read-out: ISRE-Luc IC50
THP-1 ISG Luc cells = experiment: cells; type: cell-based; details: Homo sapiens, THP-1, 48 h, read-out: CTG IC50
[2] = system: TREX1 KO THP-1 ISG Luc cells; experiment: cells; type: cell-based; details: Homo sapiens, cell viability, 48 h, read-out: CTG IC50

Sequence of cGAS (Q8N884 whole entry): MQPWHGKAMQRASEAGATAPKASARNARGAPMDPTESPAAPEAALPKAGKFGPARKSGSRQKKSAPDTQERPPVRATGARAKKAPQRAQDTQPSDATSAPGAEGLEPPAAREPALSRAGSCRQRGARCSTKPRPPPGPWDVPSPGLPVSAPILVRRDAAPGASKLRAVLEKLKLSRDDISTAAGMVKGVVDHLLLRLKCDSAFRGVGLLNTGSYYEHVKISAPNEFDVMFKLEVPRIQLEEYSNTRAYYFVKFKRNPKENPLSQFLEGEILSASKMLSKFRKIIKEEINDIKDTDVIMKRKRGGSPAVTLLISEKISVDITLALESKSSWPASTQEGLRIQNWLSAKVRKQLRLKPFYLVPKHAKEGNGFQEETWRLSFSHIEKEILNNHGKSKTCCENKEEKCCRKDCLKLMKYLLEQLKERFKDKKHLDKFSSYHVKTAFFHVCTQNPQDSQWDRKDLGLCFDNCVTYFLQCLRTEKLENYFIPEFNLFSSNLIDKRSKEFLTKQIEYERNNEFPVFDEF

Nc1cc(C2CCN(C(=O)c3cc4ccccc4[nH]3)CC2)no1 [Compound 2, (4-(5-aminoisoxazol-3-yl)piperidin-1-yl)(1H-indol-2-yl)methanone]
pIC50 (cGAS): 6.05
pIC50 [1]: 6.02
pIC50 (THP-1 ISG Luc cells): < 5.00
pIC50 [2]: < 5.00

From patent publication US20240342185A1, “SMALL MOLECULES INHIBITORS OF CYCLIC GMP-AMP SYNTHASE (cGAS)” (priority 2021, published 2024)
